We go through two molecules from ChEMBL document CHEMBL3797119, “Pharmacokinetic Study of Two Macrolide Antibiotic Oral Suspensions Using an Optimized Bioassay Procedure” (J Bioequivalence Bioavailab, 2010).

Common to all, as to assay type: ADME, organism-based
Common to all, as to conditions: in vivo

The nature of data set [1]: Half life in healthy human (24 volunteers) at 500 mg, po reference formulation of drug administered as single dose.
Data set [2] has as its system Homo sapiens. The data set is described as follows: Ratio of Cmax in healthy human (24 volunteers) at 500 mg, po test formulation of drug administered as single dose to Cmax in healthy human (24 volunteers) at 500 mg, po reference formulation of drug administered as single dose.
Data set [3] deals with Homo sapiens. Kind of data set: First order inter-compartment transfer rate constant from peripheral to central compartment in healthy human (24 volunteers) at 500 mg, po reference formulation of drug administered as single dose by two-compartmental open model.
Data set [4] in a line: Elimination rate constant from central compartment in healthy human (24 volunteers) at 500 mg, po reference formulation of drug administered as single dose by two-compartmental open model.
Data set [5] is described as follows: Elimination rate constant from central compartment in healthy human (24 volunteers) at 500 mg, po test formulation of drug administered as single dose by two-compartmental open model.
In data set [6] the test system is Homo sapiens. The data set is described as follows: Volume of distribution in healthy human (24 volunteers) at 500 mg, po test formulation of drug administered as single dose by two-compartmental open model.
Data set [7] deals with Homo sapiens. The data set is described as follows: Ratio of AUC (0 to infinity) in healthy human (24 volunteers) at 500 mg, po test formulation of drug administered as single dose to AUC (0 to t) in healthy human (24 volunteers) at 500 mg, po reference formulation of drug administered as single dose.
Data set [8] is described as follows: Half life in healthy human (24 volunteers) at 500 mg, po test formulation of drug administered as single dose.
A short description of data set [9]: Clearance in healthy human (24 volunteers) at 500 mg, po reference formulation of drug administered as single dose by two-compartmental open model.
Data set [10] has as its system Homo sapiens. Kind of data set: First order inter-compartment transfer rate constant from central to peripheral compartment in healthy human (24 volunteers) at 500 mg, po test formulation of drug administered as single dose by two-compartmental open model.
Data set [11] relates to Homo sapiens. The data set is described as follows: Volume of distribution in healthy human (24 volunteers) at 500 mg, po reference formulation of drug administered as single dose by two-compartmental open model.
A short description of data set [12]: Tmax in healthy human (24 volunteers) at 500 mg, po test formulation of drug administered as single dose.
Data set [13] in a line: AUC (0 to infinity) in healthy human (24 volunteers) at 500 mg, po test formulation of drug administered as single dose measured after 0.5 to 72 hrs. Details: dose 500 mg, route oral, time infinity.
A short description of data set [14]: AUC (0 to t) in healthy human (24 volunteers) at 500 mg, po test formulation of drug administered as single dose measured after 0.5 to 72 hrs. Details: time upper 72 hr, time lower 0.5 hr, dose 500 mg, route oral.
Data set [15] concerns Homo sapiens. The data set is described as follows: First order inter-compartment transfer rate constant from central to peripheral compartment in healthy human (24 volunteers) at 500 mg, po reference formulation of drug administered as single dose by two-compartmental open model.
Data set [16] concerns Homo sapiens. The data set is described as follows: First order inter-compartment transfer rate constant from peripheral to central compartment in healthy human (24 volunteers) at 500 mg, po test formulation of drug administered as single dose by two-compartmental open model.
Data set [17] deals with Homo sapiens. The data set is described as follows: Ratio of AUC (0 to t) in healthy human (24 volunteers) at 500 mg, po test formulation of drug administered as single dose to AUC (0 to t) in healthy human (24 volunteers) at 500 mg, po reference formulation of drug administered as single dose.
Data set [18] is described as follows: AUC (0 to infinity) in healthy human (24 volunteers) at 500 mg, po reference formulation of drug administered as single dose measured after 0.5 to 72 hrs. Details: dose 500 mg, time infinity, route oral.
Data set [19] can be described thus: AUC (0 to t) in healthy human (24 volunteers) at 500 mg, po reference formulation of drug administered as single dose measured after 0.5 to 72 hrs. Details: time upper 72 hr, dose 500 mg, time lower 0.5 hr, route oral.
Data set [20] is described as follows: Tmax in healthy human (24 volunteers) at 500 mg, po reference formulation of drug administered as single dose.
Data set [21] is described as follows: Cmax in healthy human (24 volunteers) at 500 mg, po test formulation of drug administered as single dose measured after 0.5 to 72 hrs. Details: dose 500 mg, route oral.
Data set [22] is described as follows: Cmax in healthy human (24 volunteers) at 500 mg, po reference formulation of drug administered as single dose measured after 0.5 to 72 hrs. Details: dose 500 mg, route oral.
Data set [23] is described as follows: Clearance in healthy human (24 volunteers) at 500 mg, po test formulation of drug administered as single dose by two-compartmental open model.
A short description of data set [24]: AUC (0 to infinity) in healthy human (24 volunteers) at 400 mg, po reference formulation of drug administered as single dose measured after 0.5 to 10 hrs. Details: dose 400 mg, route oral, time infinity.
Data set [25] is described as follows: Elimination rate constant from central compartment in healthy human (24 volunteers) at 400 mg, po test formulation of drug administered as single dose by two-compartmental open model.
Data set [26] can be described thus: Clearance in healthy human (24 volunteers) at 400 mg, po test formulation of drug administered as single dose by two-compartmental open model.
Data set [27] can be described thus: AUC (0 to t) in healthy human (24 volunteers) at 400 mg, po test formulation of drug administered as single dose measured after 0.5 to 10 hrs. Details: time 0.5-10 hr, dose 400 mg, route oral.
Data set [28] is described as follows: Half life in healthy human (24 volunteers) at 400 mg, po reference formulation of drug administered as single dose.
A short description of data set [29]: Half life in healthy human (24 volunteers) at 400 mg, po test formulation of drug administered as single dose.
Data set [30] has as its system Homo sapiens. Kind of data set: Volume of distribution in healthy human (24 volunteers) at 400 mg, po test formulation of drug administered as single dose by two-compartmental open model.
Data set [31] has as its system Homo sapiens. Kind of data set: First order inter-compartment transfer rate constant from peripheral to central compartment in healthy human (24 volunteers) at 400 mg, po test formulation of drug administered as single dose by two-compartmental open model.
In data set [32] the test system is Homo sapiens. The data set is described as follows: Ratio of Cmax in healthy human (24 volunteers) at 400 mg, po test formulation of drug administered as single dose to Cmax in healthy human (24 volunteers) at 400 mg, po reference formulation of drug administered as single dose.
The subject of data set [33] is Homo sapiens. The data set is described as follows: First order inter-compartment transfer rate constant from central to peripheral compartment in healthy human (24 volunteers) at 400 mg, po reference formulation of drug administered as single dose by two-compartmental open model.
In data set [34] the test system is Homo sapiens. The data set is described as follows: Ratio of AUC (0 to infinity) in healthy human (24 volunteers) at 400 mg, po test formulation of drug administered as single dose to AUC (0 to t) in healthy human (24 volunteers) at 400 mg, po reference formulation of drug administered as single dose.
Data set [35] is described as follows: Cmax in healthy human (24 volunteers) at 400 mg, po test formulation of drug administered as single dose measured after 0.5 to 10 hrs. Details: dose 400 mg, route oral.
Data set [36] can be described thus: AUC (0 to t) in healthy human (24 volunteers) at 400 mg, po reference formulation of drug administered as single dose measured after 0.5 to 10 hrs. Details: time lower 0.5 hr, dose 400 mg, time upper 10 hr, route oral.
Data set [37] is described as follows: Elimination rate constant from central compartment in healthy human (24 volunteers) at 400 mg, po reference formulation of drug administered as single dose by two-compartmental open model.
Data set [38] relates to Homo sapiens. The data set is described as follows: Volume of distribution in healthy human (24 volunteers) at 400 mg, po reference formulation of drug administered as single dose by two-compartmental open model.
Data set [39] is described as follows: Cmax in healthy human (24 volunteers) at 400 mg, po reference formulation of drug administered as single dose measured after 0.5 to 10 hrs. Details: dose 400 mg, route oral.
Data set [40] deals with Homo sapiens. The data set is described as follows: Ratio of AUC (0 to t) in healthy human (24 volunteers) at 400 mg, po test formulation of drug administered as single dose to AUC (0 to t) in healthy human (24 volunteers) at 400 mg, po reference formulation of drug administered as single dose.
Data set [41] can be described thus: Tmax in healthy human (24 volunteers) at 400 mg, po test formulation of drug administered as single dose.
Data set [42] has as its system Homo sapiens. The data set is described as follows: First order inter-compartment transfer rate constant from central to peripheral compartment in healthy human (24 volunteers) at 400 mg, po test formulation of drug administered as single dose by two-compartmental open model.
For data set [43], the system named is Homo sapiens. Kind of data set: First order inter-compartment transfer rate constant from peripheral to central compartment in healthy human (24 volunteers) at 400 mg, po reference formulation of drug administered as single dose by two-compartmental open model.
The nature of data set [44]: Clearance in healthy human (24 volunteers) at 400 mg, po reference formulation of drug administered as single dose by two-compartmental open model.
Data set [45] is described as follows: AUC (0 to infinity) in healthy human (24 volunteers) at 400 mg, po test formulation of drug administered as single dose measured after 0.5 to 10 hrs. Details: dose 400 mg, time infinity, route oral.
The nature of data set [46]: Tmax in healthy human (24 volunteers) at 400 mg, po reference formulation of drug administered as single dose.

Consider `CC[C@@H]1OC(=O)[C@H](C)[C@@H](O[C@@H]2C[C@](C)(OC)[C@H](O)[C@@H](C)O2)[C@@H](C)[C@@H](O[C@@H]2O[C@H](C)C[C@H](N(C)C)[C@H]2O)[C@](C)(O)C[C@@H](C)CN(C)[C@H](C)[C@@H](O)[C@]1(C)O`, for which the half-life in data set [1] is 25.2 h; in data set [8], 25 h. Besides, the Ratio in the data set on Homo sapiens [2] was found to be 1. In addition, the K with Homo sapiens [3] is 0.103 h⁻¹; with Homo sapiens [10], 0.419 h⁻¹; with Homo sapiens [15] it was 0.405 h⁻¹; in the data set on Homo sapiens [16], 0.084 h⁻¹. Also, the k el is 2.72e-05 s⁻¹ in [4] and 2.5e-05 s⁻¹ in data set [5]. Further, the Vd in the data set with Homo sapiens [6] is 32.2 L/kg; in the data set on Homo sapiens [11], 36.8 L/kg. Moreover, the “Ratio AUC” value is 0.96 in the data set on Homo sapiens [7] and 0.95 with Homo sapiens [17]. Also, the results for the CL/F in data set [9] and in data set [23] were 103 mL/min/kg and 139 mL/min/kg, respectively. Also, the Tmax came out at 1.96 h in [12] and 2.08 h in [20]. The AUC(0-inf) worked out at 7990 ng·h/mL in data set [13] and 8440 ng·h/mL in data set [18]. Also, the values for the AUC(0-t) in data set [14] and in data set [19] were 7580 ng·h/mL and 8050 ng·h/mL, respectively. In addition, the figures for the Cmax in data set [21] and in data set [22] were 486 ng/mL and 488 ng/mL, respectively.

Regarding `CC[C@H]1OC(=O)[C@H](C)[C@@H](O[C@H]2C[C@@](C)(OC)[C@@H](O)[C@H](C)O2)[C@H](C)[C@@H](O[C@@H]2O[C@H](C)C[C@H](N(C)C)[C@H]2O)[C@](C)(O)C[C@@H](C)C(=O)[C@H](C)[C@@H](O)[C@]1(C)O` [ERYTHROMYCIN], the AUC(0-inf) in [24] is 4790 ng·h/mL; in data set [45], 4850 ng·h/mL. In addition, the values for the k el in data set [25] and in data set [37] were 0.000229 s⁻¹ and 0.000123 s⁻¹, respectively. In addition, the values for the CL/F in [26] and in data set [44] were 225 mL/min/kg and 23.3 mL/min/kg, respectively. Besides, the AUC(0-t) in [27] was found to be 4020 ng·h/mL; in [36], 4010 ng·h/mL. Also, the half-life in [28] is 3.61 h; in [29], 3.64 h. Further, the values for the Vd with Homo sapiens [30] and in the data set on Homo sapiens [38] were 10.4 L/kg and 8.8 L/kg, respectively. Moreover, the K stood at 0.415 h⁻¹ in the data set on Homo sapiens [31], 1.34 h⁻¹ in the data set with Homo sapiens [33], 2.26 h⁻¹ with Homo sapiens [42] and 1.23 h⁻¹ with Homo sapiens [43]. Moreover, the Ratio with Homo sapiens [32] was 1.07. The “Ratio AUC” value was 1.04 with Homo sapiens [34] and 1.03 with Homo sapiens [40]. Further, the Cmax amounted to 1170 ng/mL in data set [35] and 1120 ng/mL in data set [39]. Besides, the Tmax in data set [41] turned out to be 1.4 h; in data set [46], 1.38 h.

In general, half-life refers to how long it takes for the measured level to halve. Higher therefore signals slow decline. Broadly, the CL/F is clearance divided by bioavailability, as obtained after extravascular dosing. By Tmax is commonly meant the time from dosing to the highest level. Broadly, the AUC(0-inf) is total exposure, with the tail of the curve extrapolated. What is called AUC(0-t) is exposure summed from dosing to a finite time, without extrapolation to infinity. Low values mean less exposure, high ones more exposure. As a reminder, the Cmax is the highest concentration seen after dosing.
